According to paper PMC8550792, “Evolution of kinase polypharmacology across HSP90 drug discovery” (Cell Chemical Biology, 2021):

Legend:
Test in all cases: biochemical
Type in all cases: biochemical
[1] = molecular target: T1, 382 unique human kinases (Homo sapiens, UniProt Q13043); conditions: MST1/STK4, 10 uM; for remaining activity at 10 µM: read-out: % Enzyme Activity (relative to DMSO controls)
T1 construct: purchased Reaction Biology (HotSpot contract assay)
T1 sequence (Q13043 1-487): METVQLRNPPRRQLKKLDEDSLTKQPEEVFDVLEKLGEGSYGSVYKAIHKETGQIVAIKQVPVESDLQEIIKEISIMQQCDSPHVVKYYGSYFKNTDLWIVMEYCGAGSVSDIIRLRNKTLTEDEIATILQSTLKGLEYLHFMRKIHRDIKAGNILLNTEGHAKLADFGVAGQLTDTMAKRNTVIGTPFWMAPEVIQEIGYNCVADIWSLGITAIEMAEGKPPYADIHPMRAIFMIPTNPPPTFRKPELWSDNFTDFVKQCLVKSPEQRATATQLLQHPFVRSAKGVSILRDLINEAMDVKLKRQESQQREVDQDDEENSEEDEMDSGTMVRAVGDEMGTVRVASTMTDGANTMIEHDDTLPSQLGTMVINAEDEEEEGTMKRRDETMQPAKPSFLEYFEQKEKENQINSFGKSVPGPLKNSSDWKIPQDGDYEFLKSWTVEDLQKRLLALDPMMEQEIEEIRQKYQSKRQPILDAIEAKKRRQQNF

[2] = molecular target: T2, 382 unique human kinases (Homo sapiens, UniProt Q02750, P124L); conditions: MEK1 (P124L), 10 uM; for remaining activity at 10 µM: read-out: % Enzyme Activity (relative to DMSO controls)
T2 construct: purchased Reaction Biology (HotSpot contract assay)

[3] = molecular target: T3, 382 unique human kinases (Homo sapiens, UniProt P48730); conditions: CK1d, 10 uM; for remaining activity at 10 µM: read-out: % Enzyme Activity (relative to DMSO controls)
T3 construct: purchased Reaction Biology (HotSpot contract assay)
T3 sequence (P48730 whole entry): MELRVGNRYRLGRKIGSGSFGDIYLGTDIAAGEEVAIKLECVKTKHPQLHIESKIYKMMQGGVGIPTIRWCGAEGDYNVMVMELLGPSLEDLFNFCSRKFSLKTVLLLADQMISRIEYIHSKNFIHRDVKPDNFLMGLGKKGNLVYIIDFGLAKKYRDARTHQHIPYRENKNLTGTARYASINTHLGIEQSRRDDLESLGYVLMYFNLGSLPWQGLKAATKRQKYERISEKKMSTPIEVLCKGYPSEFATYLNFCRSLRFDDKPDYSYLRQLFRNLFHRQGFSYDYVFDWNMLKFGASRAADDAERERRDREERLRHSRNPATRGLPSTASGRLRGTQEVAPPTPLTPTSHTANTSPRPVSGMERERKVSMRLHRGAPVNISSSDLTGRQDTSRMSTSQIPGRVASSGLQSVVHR

[4] = molecular target: T4, 382 unique human kinases (Homo sapiens, UniProt P25098); conditions: GRK2, compound at 10 uM, duplicate values; for remaining activity at 10 µM: read-out: % Enzyme Activity (relative to DMSO controls)
T4 construct: purchased Reaction Biology (HotSpot contract assay)
T4 sequence (P25098 1-689): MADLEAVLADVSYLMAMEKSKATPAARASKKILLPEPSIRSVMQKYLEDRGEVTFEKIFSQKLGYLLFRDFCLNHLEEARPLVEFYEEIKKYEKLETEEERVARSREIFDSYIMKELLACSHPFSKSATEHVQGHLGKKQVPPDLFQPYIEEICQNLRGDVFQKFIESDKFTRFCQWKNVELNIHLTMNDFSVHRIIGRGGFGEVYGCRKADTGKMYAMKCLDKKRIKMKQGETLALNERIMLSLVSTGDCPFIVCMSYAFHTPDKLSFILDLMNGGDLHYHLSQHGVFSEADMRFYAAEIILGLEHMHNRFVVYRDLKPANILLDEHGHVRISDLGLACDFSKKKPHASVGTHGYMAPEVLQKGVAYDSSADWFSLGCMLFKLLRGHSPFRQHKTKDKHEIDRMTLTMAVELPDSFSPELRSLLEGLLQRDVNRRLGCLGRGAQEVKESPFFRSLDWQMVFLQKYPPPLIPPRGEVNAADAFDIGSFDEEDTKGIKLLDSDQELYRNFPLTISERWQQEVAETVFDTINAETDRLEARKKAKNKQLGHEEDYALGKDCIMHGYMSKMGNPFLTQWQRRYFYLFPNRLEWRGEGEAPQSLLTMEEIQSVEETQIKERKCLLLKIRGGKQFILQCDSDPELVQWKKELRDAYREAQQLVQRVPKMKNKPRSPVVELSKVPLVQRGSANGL

[5] = molecular target: T5, 382 unique human kinases (Homo sapiens, UniProt O43293); conditions: kinase ZIPK/DAPK3, compound 10 uM; for remaining activity at 10 µM: read-out: % Enzyme Activity (relative to DMSO controls)
T5 construct: purchased Reaction Biology (HotSpot contract assay)
T5 sequence (O43293 whole entry): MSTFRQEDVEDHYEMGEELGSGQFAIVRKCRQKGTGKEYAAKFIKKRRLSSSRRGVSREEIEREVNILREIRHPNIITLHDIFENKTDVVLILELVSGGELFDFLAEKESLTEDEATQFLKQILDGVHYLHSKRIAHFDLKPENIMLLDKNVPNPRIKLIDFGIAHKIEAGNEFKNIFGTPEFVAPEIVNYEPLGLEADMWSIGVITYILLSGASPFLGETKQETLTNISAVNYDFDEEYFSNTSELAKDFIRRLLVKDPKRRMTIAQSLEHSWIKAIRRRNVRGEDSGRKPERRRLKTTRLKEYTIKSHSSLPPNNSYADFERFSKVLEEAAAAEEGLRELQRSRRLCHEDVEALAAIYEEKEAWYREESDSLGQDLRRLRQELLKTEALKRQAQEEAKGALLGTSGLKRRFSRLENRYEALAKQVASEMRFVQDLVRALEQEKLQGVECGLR

[6] = molecular target: T6, 382 unique human kinases (Homo sapiens, UniProt Q08345); conditions: DDR1, [ATP] 100 µM
T6 construct: purchased Reaction Biology (HotSpot contract assay)
T6 sequence (Q08345 19-913): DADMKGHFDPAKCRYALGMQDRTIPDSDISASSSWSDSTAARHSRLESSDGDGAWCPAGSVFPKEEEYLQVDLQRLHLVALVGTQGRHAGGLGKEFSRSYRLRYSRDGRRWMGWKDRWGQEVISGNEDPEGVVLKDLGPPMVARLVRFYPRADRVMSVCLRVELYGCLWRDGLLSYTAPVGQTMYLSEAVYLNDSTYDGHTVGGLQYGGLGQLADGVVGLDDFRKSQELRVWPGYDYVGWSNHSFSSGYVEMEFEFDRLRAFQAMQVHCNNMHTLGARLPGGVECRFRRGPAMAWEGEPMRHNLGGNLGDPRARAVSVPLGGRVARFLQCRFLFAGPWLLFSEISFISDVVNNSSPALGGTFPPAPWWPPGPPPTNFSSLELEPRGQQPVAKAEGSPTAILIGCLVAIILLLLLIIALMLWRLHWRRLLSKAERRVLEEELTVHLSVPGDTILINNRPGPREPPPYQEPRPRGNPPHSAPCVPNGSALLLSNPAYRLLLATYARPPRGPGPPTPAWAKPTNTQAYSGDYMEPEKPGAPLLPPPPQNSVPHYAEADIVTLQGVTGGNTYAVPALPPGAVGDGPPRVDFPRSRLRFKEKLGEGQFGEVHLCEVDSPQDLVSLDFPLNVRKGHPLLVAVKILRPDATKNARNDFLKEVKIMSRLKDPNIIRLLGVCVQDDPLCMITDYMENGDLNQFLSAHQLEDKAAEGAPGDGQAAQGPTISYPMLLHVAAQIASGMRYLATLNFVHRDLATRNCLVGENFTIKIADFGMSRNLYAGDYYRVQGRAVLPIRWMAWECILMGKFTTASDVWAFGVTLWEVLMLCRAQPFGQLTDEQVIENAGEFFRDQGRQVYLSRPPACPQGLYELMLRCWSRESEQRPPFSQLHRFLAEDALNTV

[7] = molecular target: T7, 382 unique human kinases (Homo sapiens, UniProt Q16832, N456S); conditions: DDR2 (N456S), [ATP] 2.5 µM, compound 10 uM; for remaining activity at 10 µM: read-out: % Enzyme Activity (relative to DMSO controls)
T7 construct: purchased Reaction Biology (HotSpot contract assay)
T7 sequence (Q16832 22-855 N456S): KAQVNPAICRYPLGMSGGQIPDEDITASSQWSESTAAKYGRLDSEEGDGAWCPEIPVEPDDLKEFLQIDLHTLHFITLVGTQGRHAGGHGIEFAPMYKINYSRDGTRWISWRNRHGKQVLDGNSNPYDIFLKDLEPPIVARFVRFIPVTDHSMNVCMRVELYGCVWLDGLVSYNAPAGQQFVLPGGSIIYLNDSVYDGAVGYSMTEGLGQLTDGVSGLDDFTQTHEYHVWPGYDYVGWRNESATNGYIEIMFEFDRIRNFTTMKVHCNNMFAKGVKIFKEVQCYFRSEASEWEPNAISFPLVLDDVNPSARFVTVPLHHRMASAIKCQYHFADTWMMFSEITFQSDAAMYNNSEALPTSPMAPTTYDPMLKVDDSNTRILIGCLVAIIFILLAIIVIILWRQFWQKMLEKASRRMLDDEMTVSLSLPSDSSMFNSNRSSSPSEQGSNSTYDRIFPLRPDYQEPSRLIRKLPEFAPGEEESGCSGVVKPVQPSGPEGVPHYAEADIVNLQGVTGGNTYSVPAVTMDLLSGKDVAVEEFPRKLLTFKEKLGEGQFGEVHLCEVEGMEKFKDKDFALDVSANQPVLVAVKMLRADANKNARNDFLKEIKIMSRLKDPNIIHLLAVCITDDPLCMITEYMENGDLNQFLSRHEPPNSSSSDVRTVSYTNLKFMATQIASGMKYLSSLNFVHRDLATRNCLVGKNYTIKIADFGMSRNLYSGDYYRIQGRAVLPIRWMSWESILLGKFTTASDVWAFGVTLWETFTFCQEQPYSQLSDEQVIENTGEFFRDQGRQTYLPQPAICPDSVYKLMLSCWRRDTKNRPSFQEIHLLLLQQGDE

[8] = molecular target: T8, 382 unique human kinases (Homo sapiens, UniProt P17252); conditions: PKCa, 10 uM; for remaining activity at 10 µM: read-out: % Enzyme Activity (relative to DMSO controls)
T8 construct: purchased Reaction Biology (HotSpot contract assay)

[9] = molecular target: T9, 382 unique human kinases (Homo sapiens, UniProt Q96SB4); conditions: SRPK1, 10 uM; for remaining activity at 10 µM: read-out: % Enzyme Activity (relative to DMSO controls)
T9 construct: purchased Reaction Biology (HotSpot contract assay)
T9 sequence (Q96SB4 whole entry): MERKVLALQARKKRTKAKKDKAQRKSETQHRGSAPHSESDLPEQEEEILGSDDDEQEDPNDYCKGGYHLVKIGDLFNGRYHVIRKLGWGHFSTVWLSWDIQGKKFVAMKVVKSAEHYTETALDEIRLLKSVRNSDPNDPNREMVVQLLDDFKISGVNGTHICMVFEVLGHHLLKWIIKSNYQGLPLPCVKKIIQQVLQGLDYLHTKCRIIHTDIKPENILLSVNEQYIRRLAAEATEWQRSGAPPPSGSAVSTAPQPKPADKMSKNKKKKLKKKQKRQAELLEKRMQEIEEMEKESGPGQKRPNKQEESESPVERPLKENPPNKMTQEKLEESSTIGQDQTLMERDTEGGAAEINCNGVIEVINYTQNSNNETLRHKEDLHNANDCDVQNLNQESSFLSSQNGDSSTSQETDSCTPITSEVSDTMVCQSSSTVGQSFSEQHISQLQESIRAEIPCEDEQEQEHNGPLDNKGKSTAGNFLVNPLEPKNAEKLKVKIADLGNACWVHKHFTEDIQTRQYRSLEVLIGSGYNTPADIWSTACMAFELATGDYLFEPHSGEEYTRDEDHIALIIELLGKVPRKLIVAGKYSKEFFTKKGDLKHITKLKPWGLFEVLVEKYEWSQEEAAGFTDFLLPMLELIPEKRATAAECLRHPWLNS

[10] = compound 10 uM, read-out: % Enzyme Activity (relative to DMSO controls)

Compound: CC(C)c1cc(-c2n[nH]c(=O)n2-c2ccc3c(ccn3C)c2)c(O)cc1O [Ganetespib (STA9090)]
- remaining activity at 10 µM [1]: 73.7%
- remaining activity at 10 µM [2]: 73.7%
- remaining activity at 10 µM [3]: 81.2%
- remaining activity at 10 µM [4]: 104%
- remaining activity at 10 µM [5]: 89.8%

Compound: CC(C)c1cc(-c2n[nH]c(=O)n2-c2ccc3c(ccn3C)c2)c(O)cc1O [Ganetespib]
- remaining activity at 1 µM ([6]; compound 1 uM, read-out: % Enzyme Activity (relative to DMSO controls)): 8.59%
- remaining activity at 10 µM [6, 10]: 4.12%
- remaining activity at 10 µM [7]: 2.65%
- remaining activity at 10 µM [8]: 94.5%
- remaining activity at 10 µM [9]: 90.7%

Compound: CCNC(=O)c1noc(-c2cc(C(C)C)c(O)cc2O)c1-c1ccc(CN2CCOCC2)cc1 [Luminespib (AUY-922)]
- % Enzyme Activity (relative to DMSO controls) [1]: 101.81%
- remaining activity at 10 µM [1]: 103%
- % Enzyme Activity (relative to DMSO controls) [2]: 99.77%
- remaining activity at 10 µM [2]: 102%
- % Enzyme Activity (relative to DMSO controls) [3]: 81.12%
- remaining activity at 10 µM [3]: 83.5%
- % Enzyme Activity (relative to DMSO controls) [4]: 104.97%
- remaining activity at 10 µM [4]: 106%
- % Enzyme Activity (relative to DMSO controls) [5]: 97.96%
- remaining activity at 10 µM [5]: 98.6%

Compound: CCNC(=O)c1noc(-c2cc(C(C)C)c(O)cc2O)c1-c1ccc(CN2CCOCC2)cc1 [Luminespib]
- % Enzyme Activity (relative to DMSO controls) ([6]; compound 10 uM): 84.86%
- remaining activity at 10 µM [6, 10]: 85.9%
- % Enzyme Activity (relative to DMSO controls) [7]: 85.24%
- remaining activity at 10 µM [7]: 90.4%
- % Enzyme Activity (relative to DMSO controls) [8]: 92.02%
- remaining activity at 10 µM [8]: 94%
- % Enzyme Activity (relative to DMSO controls) [9]: 101.35%
- remaining activity at 10 µM [9]: 101%
